Assay results published in US20230000813A1, “COMPOUND FOR THE TREATMENT OF BOVINE OR SWINE RESPIRATORY DISEASE” (Intervet Inc., priority 2016, published 2023).
Converted amounts (≈) assume the structure as drawn.

Key:
Assay in all cases: MIC, broth-microdilution (CLSI VET01-A4)
Type in all cases: cell-based
[1] = system: Mannheimia haemolytica MH 10720 (154, BRD field isolate); conditions: Mannheimia haemolytica MH 10720; for MIC: read-out: MIC MH 10720
Procedure, shortened: (§1)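 Visual no-turbidity endpoint over twofold compound dilutions in microdilution trays, interpreted according to CLSI VET01-S3.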

[2] = system: Mannheimia haemolytica MH 12587 (1071, BRD field isolate, macrolide-resistance: erm+, E+); conditions: Mannheimia haemolytica MH 12587, macrolide-resistant
Procedure, shortened: as §1

[3] = system: Mannheimia haemolytica MH 6357 (M7/2, reference strain, cattle infection strain); conditions: Mannheimia haemolytica MH 6357; read-out: MIC MH 6357
Procedure, shortened: as §1

[4] = system: Mannheimia haemolytica MH 6374 (ATCC 33396, reference strain); conditions: Mannheimia haemolytica MH 6374; read-out: MIC MH 6374
Procedure, shortened: as §1

[5] = system: Pasteurella multocida PM 10775 (080130003051, BRD field isolate); conditions: Pasteurella multocida PM 10775
Procedure, shortened: as §1

[6] = system: Pasteurella multocida PM 12080 (IV102277-0093, BRD field isolate); conditions: Pasteurella multocida PM 12080; for MIC: read-out: MIC PM 12080
Procedure, shortened: as §1

[7] = system: Pasteurella multocida PM 6267 (P 2225 (L386), reference strain, mouse infection strain); conditions: Pasteurella multocida PM 6267
Procedure, shortened: as §1

[8] = system: Pasteurella multocida PM 6391 (ATCC 43137, reference strain); conditions: Pasteurella multocida PM 6391; for MIC: read-out: MIC PM 6391
Procedure, shortened: as §1

[9] = system: Mannheimia haemolytica MH 13065 (XB0446-6003.9, BRD field isolate)
Procedure, shortened: (§2)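 MIC read by eye as lowest compound concentration without visible growth (no turbidity), interpreted per CLSI VET01-S3. Doubling-dilution broth-microdilution trays, run according to CLSI VET01-A4.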

[10] = system: Mannheimia haemolytica MH 13093 (XB0472-6014.1, BRD field isolate)
Procedure, shortened: as §2

Compound | MIC MH 10720 [1] | MIC MH 12587 [2] | MIC [3] | MIC [4] | MIC PM 10775 [5] | MIC PM 12080 [6] | MIC PM 6267 [7] | MIC [8] | MIC MH 13065 [9] | MIC [10] | MIC [1] | MIC ([5]; read-out: MIC PM 10775) | MIC [6] | MIC ([7]; read-out: MIC PM 6267) | MIC [9] | MIC PM 6391 [8]
CC(C)C(NC(=O)c1ccc(C#Cc2ccc(CNC3CC3)cc2)cc1)C(=O)NO (stereo not drawn) [Compound 144] | <=0.1 μM | 0.2 µM (≈ 0.0811 µg/mL) | 1.563 µM (≈ 0.634 µg/mL) | 0.195 µM (≈ 0.0791 µg/mL) | <=0.1 μM | <=0.1 μM | <=0.1 μM | 0.098 µM (≈ 0.0397 µg/mL) | <=0.1 μM | 0.2 µM (≈ 0.0811 µg/mL) |  |  |  |  |  | 
COc1ccc(CNCc2ccc(C#Cc3ccc(C(=O)NC(C(=O)NO)C(C)(C)SC)cc3)cc2)cc1 (stereo not drawn) [Compound 586] |  | 1.6 µM (≈ 0.851 µg/mL) | 1.6 µM (≈ 0.851 µg/mL) | 1.6 µM (≈ 0.851 µg/mL) |  |  |  | 0.8 µM (≈ 0.425 µg/mL) |  | 1.6 µM (≈ 0.851 µg/mL) | 0.4 µM (≈ 0.213 µg/mL) | 0.2 µM (≈ 0.106 µg/mL) | 0.4 µM (≈ 0.213 µg/mL) | 0.2 µM (≈ 0.106 µg/mL) | 1.6 µM (≈ 0.851 µg/mL) | 
COc1ccc(CNCc2ccc(C#Cc3ccc(C(=O)NC(C(=O)NO)C(C)(C)O)cc3)cc2)cc1 (stereo not drawn) [Compound 570] | <=0.1 μM | 1.6 µM (≈ 0.803 µg/mL) | 0.8 µM (≈ 0.401 µg/mL) | 0.8 µM (≈ 0.401 µg/mL) | <=0.1 μM | <=0.1 μM | <=0.1 μM | 0.4 µM (≈ 0.201 µg/mL) |  | 0.8 µM (≈ 0.401 µg/mL) |  |  |  |  | 0.8 µM (≈ 0.401 µg/mL) | 
CCC(C)C(NC(=O)c1ccc(C#Cc2ccc(CNC3CC3)cc2)cc1)C(=O)NO (stereo not drawn) [Compound 164] | <=0.1 μM | 0.8 µM (≈ 0.336 µg/mL) | 0.391 µM (≈ 0.164 µg/mL) | 0.781 µM (≈ 0.328 µg/mL) | <=0.1 μM |  | <=0.1 μM | 0.391 µM (≈ 0.164 µg/mL) |  | 0.4 µM (≈ 0.168 µg/mL) |  |  | 0.2 µM (≈ 0.0839 µg/mL) |  | 0.4 µM (≈ 0.168 µg/mL) | 
CC(C)([C@H](NC(=O)c1ccc(C#Cc2ccc(CNCc3ccnc(Cl)c3)cc2)cc1)C(=O)NO)S(C)(=O)=O [Compound 614] | <=0.1 μM | 0.8 µM (≈ 0.455 µg/mL) | 0.4 µM (≈ 0.228 µg/mL) | 0.4 µM (≈ 0.228 µg/mL) | <=0.1 μM | <=0.1 μM | <=0.1 μM |  |  | 0.4 µM (≈ 0.228 µg/mL) |  |  |  |  | 0.2 µM (≈ 0.114 µg/mL) | <=0.1 μM
CSC(C)(C)C(NC(=O)c1ccc(C#Cc2ccc(CNC3CC3)cc2)cc1)C(=O)NO (stereo not drawn) [Compound 581] | <=0.1 μM | 1.6 µM (≈ 0.723 µg/mL) | 0.4 µM (≈ 0.181 µg/mL) | 0.8 µM (≈ 0.361 µg/mL) | <=0.1 μM | <=0.1 μM | <=0.1 μM |  |  | 0.4 µM (≈ 0.181 µg/mL) |  |  |  |  | 0.4 µM (≈ 0.181 µg/mL) | <=0.1 μM
C[C@@H](O)[C@H](NC(=O)c1ccc(C#Cc2ccc(CNCC#N)cc2)cc1)C(=O)NO [C. 360] |  | 0.8 µM (≈ 0.325 µg/mL) | 0.4 µM (≈ 0.163 µg/mL) | 0.4 µM (≈ 0.163 µg/mL) | <=0.1 μM | <=0.1 μM | <=0.1 μM |  |  | 0.8 µM (≈ 0.325 µg/mL) | 0.2 µM (≈ 0.0813 µg/mL) |  |  |  | 0.4 µM (≈ 0.163 µg/mL) | <=0.1 μM
CC(C)(O)[C@H](NC(=O)c1ccc(C#Cc2ccc(CNCc3ccncc3)cc2)cc1)C(=O)NO [Compound 651] | <=0.1 μM | 0.4 µM (≈ 0.189 µg/mL) | 0.4 µM (≈ 0.189 µg/mL) | 0.2 µM (≈ 0.0945 µg/mL) | <=0.1 μM | <=0.1 μM | <=0.1 μM |  |  | 0.4 µM (≈ 0.189 µg/mL) |  |  |  |  | 0.2 µM (≈ 0.0945 µg/mL) | <=0.1 μM
C[C@@H](O)[C@H](NC(=O)c1ccc(C#Cc2ccc(CN3CCc4ccccc4C3)s2)cc1)C(=O)NO [Compound 194] | <=0.1 μM | 0.8 µM (≈ 0.392 µg/mL) | 0.2 µM (≈ 0.0979 µg/mL) | 0.8 µM (≈ 0.392 µg/mL) | <=0.1 μM | <=0.1 μM | <=0.1 μM |  |  | 0.8 µM (≈ 0.392 µg/mL) |  |  |  |  | 0.4 µM (≈ 0.196 µg/mL) | <=0.1 μM
